Laboratory results from patent US10597388B2, “Pyridazinone herbicides” (FMC CORPORATION, priority 2014, dated 2020).

Columns and labels:
Assay in all cases: Test D controlled growth environment herbicide test, pre- and postemergence
Type in all cases: in vivo
[1] = system: barley, spring (spring barley, Hordeum vulgare)
In short: (§1)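 Pre-emergence: seeds sown in silt loam soil were sprayed with compound in a non-phytotoxic solvent mix containing surfactant. Post-emergence: plants at 2 to 18 cm (1- to 4-leaf stage) in peat moss/vermiculite medium got the same formulation. Visual 0–100 rating versus controls after 14 to 21 d.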

[2] = system: barley, winter (winter barley, Hordeum vulgare)
In short: as §1

[3] = system: bluegrass (annual bluegrass, Poa annua)
In short: as §1

[4] = system: buckwheat, wild (wild buckwheat, Polygonum convolvulus)
In short: as §1

[5] = system: canarygrass (Phalaris minor)
In short: as §1

[6] = system: chamomile (scentless chamomile, Matricaria inodora)
In short: as §1

[7] = system: field poppy (Papaver rhoeas)
In short: as §1

[8] = system: field violet (Viola arvensis)
In short: as §1

[9] = system: galium (catchweed bedstraw, Galium aparine)
In short: as §1

[10] = system: kochia (Kochia scoparia)
In short: as §1

[11] = system: lambsquarters (Chenopodium album)
In short: as §1

[12] = system: pigweed (Amaranthus retroflexus)
In short: as §1

[13] = system: radish, wild (wild radish, Raphanus raphanistrum)
In short: as §1

[14] = system: windgrass (Apera spica-venti)
In short: as §1

[15] = Postemergence, 31 g ai/ha, scale 0 to 100 (0 no effect, 100 complete control)
[16] = Postemergence, 125 g ai/ha, visual rating on scale 0 (no effect) to 100 (complete control), 14 to 21 d
[17] = Postemergence, 250 g ai/ha, scale 0 to 100 (0 no effect, 100 complete control)
[18] = postemergence, 62 g ai/ha, scale 0 to 100, 0 no effect, 100 complete control

Cc1cc(C)c2ccccc2c1-c1c(O)c(C)nn(C)c1=O [Compound 21]
80: Canarygrass plant response rating [5, 15] | Plant response rating, Canarygrass [5, 18] | Lambsquarters plant response rating [11, 15] | Pigweed plant response rating [12, 15] | Plant response rating, Windgrass [14, 18]
5: Plant response rating, Barley, Spring [1, 18]
95: Plant response rating, Canarygrass [5, 17] | Plant response rating, Chamomile [6, 18] | Field Violet plant response rating [8, 15] | Plant response rating, Field Violet [8, 18] | Plant response rating, Lambsquarters [11, 17] | Radish, Wild plant response rating [13, 15]
45: Plant response rating, Kochia [10, 18]
75: Plant response rating, Kochia [10, 16]
85: Plant response rating, Canarygrass [5, 16] | Field Poppy plant response rating [7, 15] | Plant response rating, Kochia [10, 17] | Plant response rating, Lambsquarters [11, 18] | Plant response rating, Pigweed [12, 18] | Plant response rating, Windgrass [14, 16] | Plant response rating, Windgrass [14, 17]
50: Plant response rating, Bluegrass [3, 17]
10: Plant response rating, Barley, Spring [1, 16] | Plant response rating, Barley, Winter [2, 18]
40: Plant response rating, Barley, Winter [2, 17]
100: Buckwheat, Wild plant response rating [4, 15] | Plant response rating, Buckwheat, Wild [4, 16] | Plant response rating, Buckwheat, Wild [4, 17] | Plant response rating, Buckwheat, Wild [4, 18] | Plant response rating, Chamomile [6, 16] | Plant response rating, Chamomile [6, 17] | Plant response rating, Field Poppy [7, 16] | Plant response rating, Field Poppy [7, 17] | Plant response rating, Field Poppy [7, 18] | Plant response rating, Field Violet [8, 16] | Plant response rating, Field Violet [8, 17] | Galium plant response rating [9, 15] | Plant response rating, Galium [9, 16] | Plant response rating, Galium [9, 17] | Plant response rating, Galium [9, 18] | Plant response rating, Radish, Wild [13, 16] | Plant response rating, Radish, Wild [13, 17] | Plant response rating, Radish, Wild [13, 18]
0: Plant response rating, Barley, Spring [1, 15] | Plant response rating, Barley, Winter [2, 15]
20: Bluegrass plant response rating [3, 15]
30: Plant response rating, Barley, Spring [1, 17] | Plant response rating, Barley, Winter [2, 16] | Plant response rating, Bluegrass [3, 18]
98: Plant response rating, Pigweed [12, 17]
35: Plant response rating, Bluegrass [3, 16] | Kochia plant response rating [10, 15]
70: Windgrass plant response rating [14, 15]
90: Chamomile plant response rating [6, 15] | Plant response rating, Lambsquarters [11, 16] | Plant response rating, Pigweed [12, 16]
